Test results: patent publication US6310091A, “Fungicidal saponin, CAY-1, and isolation thereof from Capsium species fruit” (The United States of America as represented by the …, priority 2000, dated 2001)
Values joined by “and” are separate entries in the source; they are usually repeats but may differ in a detail not shown here. Identical values can stand only once. Like-named read-outs stand apart in the source and are kept apart here.

Tests used:
Aspergillus flavus = test: Time course study against germinating conidia of A. flavus; type: cell-based; conditions: Aspergillus flavus, 1% PDB, read-out: Percent of Mean Control
Protocol: (§1) 1. Filamentous fungi. Filamentous fungi used in bioassays included Aspergillus flavus, A. fumigatus, A. niger, A. parasiticus and Fusarium oxysporum. The fungicidal properties of CAY-1 for the nongerminated and germinating conidia of these fungi were determined separately as described by De Lucca et al. [Med. Mycol., 36:291-298 (1998)] and De Lucca et al. [Antimicrob. Agents Chemother. 43:371-373 (1999)]. […] Two separate experiments were conducted in each medium (n=8 per medium).
(§2) A suspension of the aforementioned fungi were prepared separately in the appropriate medium. Conidia (10^4 conidia/ml) were used immediately for the nongerminated conidial assays while conidia (10^5 conidia/ml) were incubated for 7.5 hours at 30° C. to obtain germinating conidia. Serial dilutions of CAY-1 were prepared in the appropriate medium (totaling 225 μl) to which was added 25 μl of the conidial suspensions. The control consisted of 225 μl of medium and 25 μl of the conidial suspension. After mixing, the samples were incubated for 30 min (30° C.). Samples were then spread on potato dextrose agar plates which were incubated at 30° C. for 24 hours. Colonies were then enumerated.
4. Time course study. The effect of time and concentration on the activity of CAY-1 was determined against the germinating conidia of A. flavus in 1% (w/v) PBD. Bioassays were performed twice as described above (n=8).
(§3) Statistical analyses. ANOVA analyses on ranks for nonparametric data were performed for the bioassays described in this example.

Aspergillus fumigatus = test: Fungicidal bioassay on nongerminated and germinating conidia of A. fumigatus; type: cell-based; conditions: for activity at 2 µM / activity at 3 µM / activity at 4 µM / activity at 5 µM / activity at 7.5 µM / activity at 10 µM / activity at 0.5 µM / activity at 1 µM / activity at 1.5 µM / activity at 2.5 µM: read-out: Percent of Mean Control
Protocol: as §1, §2, §3

[1] = Aspergillus fumigatus, 0.5 h, read-out: LD95

Question: How did the activity at 4 µM (Aspergillus flavus; 20 min) turn out when CC1CCC2(OC1)OC1CC3C4CCC5CC(OC6OC(CO)C(OC7OC(CO)C(O)C(OC8OC(CO)C(O)C(OC9OC(CO)C(O)C(O)C9O)C8O)C7OC7OC(CO)C(O)C(O)C7O)C(O)C6O)C(O)CC5(C)C4CCC3(C)C1C2C (stereo not drawn) [CAY-1] was run?
Answer: Its activity at 4 µM is 68%.

Question: And the activity at 5 µM (Aspergillus flavus; 20 min)?
Answer: The activity at 5 µM was 41.5%.

Question: What about the activity at 7.5 µM (Aspergillus flavus; 20 min) of the same molecule?
Answer: Its activity at 7.5 µM is 8.6%.

Question: And the activity at 10 µM (Aspergillus flavus; 20 min)?
Answer: Its activity at 10 µM is 3.3%.

Question: And the activity at 2 µM (Aspergillus flavus; 0.5 h, 30 min, 2.0 μM)?
Answer: Its activity at 2 µM is 90.1%.

Question: And the activity at 3 µM (Aspergillus flavus; 0.5 h, 30 min, 3.0 μM)?
Answer: The activity at 3 µM was 74.4%.

Question: And the activity at 4 µM (Aspergillus flavus; 0.5 h, 30 min)?
Answer: The activity at 4 µM was 54.2%.

Question: And the activity at 5 µM (Aspergillus flavus; 0.5 h, 30 min)?
Answer: The activity at 5 µM was 34.9%.

Question: What about the activity at 7.5 µM (Aspergillus flavus; 0.5 h, 30 min) of the same molecule?
Answer: Its activity at 7.5 µM is 11%.

Question: What about the activity at 10 µM (Aspergillus flavus; 0.5 h, 30 min) of the same molecule?
Answer: The activity at 10 µM was 8.4%.

Question: What about the activity at 2 µM (Aspergillus fumigatus; Aspergillus fumigatus, 0.5 h, germinating, 1% PDB, 2.0 μM) of the same molecule?
Answer: The activity at 2 µM was 96.1%.

Question: What about the activity at 3 µM (Aspergillus fumigatus; Aspergillus fumigatus, 0.5 h, germinating, 1% PDB, 3.0 μM) of the same molecule?
Answer: The activity at 3 µM was 49.9%.

Question: And the activity at 4 µM (Aspergillus fumigatus; Aspergillus fumigatus, 0.5 h, germinating, 1% PDB, 4.0 μM)?
Answer: The activity at 4 µM was 14.4%.

Question: What about the activity at 5 µM (Aspergillus fumigatus; Aspergillus fumigatus, 0.5 h, germinating, 1% PDB, 5.0 μM) of the same molecule?
Answer: Its activity at 5 µM is 6.1%.

Question: What about the activity at 7.5 µM (Aspergillus fumigatus; Aspergillus fumigatus, 0.5 h, germinating, 1% PDB, 7.5 μM) of the same molecule?
Answer: Its activity at 7.5 µM is 2.8%.

Question: And the activity at 10 µM (Aspergillus fumigatus; Aspergillus fumigatus, 0.5 h, germinating, 1% PDB, 10.0 μM)?
Answer: The activity at 10 µM was 0.2%.

Question: And the activity at 0.5 µM (Aspergillus fumigatus; Aspergillus fumigatus, 0.5 h, germinating, RPMI-1640, 0.5 μM)?
Answer: The activity at 0.5 µM was 92.4%.

Question: What about the activity at 1 µM (Aspergillus fumigatus; Aspergillus fumigatus, 0.5 h, germinating, RPMI-1640, 1.0 μM) of the same molecule?
Answer: Its activity at 1 µM is 105%.

Question: What about the activity at 1.5 µM (Aspergillus fumigatus; Aspergillus fumigatus, 0.5 h, germinating, RPMI-1640, 1.5 μM) of the same molecule?
Answer: The activity at 1.5 µM was 117%.

Question: And the activity at 2 µM (Aspergillus fumigatus; Aspergillus fumigatus, 0.5 h, germinating, RPMI-1640, 2.0 μM)?
Answer: The activity at 2 µM was 118%.

Question: And the activity at 2.5 µM (Aspergillus fumigatus; Aspergillus fumigatus, 0.5 h, germinating, RPMI-1640, 2.5 μM)?
Answer: The activity at 2.5 µM was 114%.

Question: What about the activity at 3 µM (Aspergillus fumigatus; Aspergillus fumigatus, 0.5 h, germinating, RPMI-1640, 3.0 μM) of the same molecule?
Answer: Its activity at 3 µM is 40.7%.

Question: What about the activity at 4 µM (Aspergillus fumigatus; Aspergillus fumigatus, 0.5 h, germinating, RPMI-1640, 4.0 μM) of the same molecule?
Answer: The activity at 4 µM was 5.1%.

Question: And the activity at 2 µM (Aspergillus fumigatus; Aspergillus fumigatus, 0.5 h, nongerminated, 1% PDB, 2.0 μM)?
Answer: Its activity at 2 µM is 93.9%.

Question: And the activity at 3 µM (Aspergillus fumigatus; Aspergillus fumigatus, 0.5 h, nongerminated, 1% PDB, 3.0 μM)?
Answer: The activity at 3 µM was 80.4%.

Question: And the activity at 4 µM (Aspergillus fumigatus; Aspergillus fumigatus, 0.5 h, nongerminated, 1% PDB, 4.0 μM)?
Answer: Its activity at 4 µM is 88.5%.

Question: What about the activity at 5 µM (Aspergillus fumigatus; Aspergillus fumigatus, 0.5 h, nongerminated, 1% PDB, 5.0 μM) of the same molecule?
Answer: The activity at 5 µM was 86.7%.

Question: What about the activity at 7.5 µM (Aspergillus fumigatus; Aspergillus fumigatus, 0.5 h, nongerminated, 1% PDB, 7.5 μM) of the same molecule?
Answer: Its activity at 7.5 µM is 96.6%.

Question: And the activity at 10 µM (Aspergillus fumigatus; Aspergillus fumigatus, 0.5 h, nongerminated, 1% PDB, 10.0 μM)?
Answer: Its activity at 10 µM is 101%.

Question: And the activity at 0.5 µM (Aspergillus fumigatus; Aspergillus fumigatus, 0.5 h, nongerminated, RPMI-1640, 0.5 μM)?
Answer: Its activity at 0.5 µM is 117%.

Question: And the activity at 1 µM (Aspergillus fumigatus; Aspergillus fumigatus, 0.5 h, nongerminated, RPMI-1640, 1.0 μM)?
Answer: The activity at 1 µM was 132%.

Question: And the activity at 1.5 µM (Aspergillus fumigatus; Aspergillus fumigatus, 0.5 h, nongerminated, RPMI-1640, 1.5 μM)?
Answer: The activity at 1.5 µM was 97.4%.

Question: And the activity at 2 µM (Aspergillus fumigatus; Aspergillus fumigatus, 0.5 h, nongerminated, RPMI-1640, 2.0 μM)?
Answer: Its activity at 2 µM is 109%.

Question: And the activity at 2.5 µM (Aspergillus fumigatus; Aspergillus fumigatus, 0.5 h, nongerminated, RPMI-1640, 2.5 μM)?
Answer: The activity at 2.5 µM was 96.5%.

Question: And the activity at 3 µM (Aspergillus fumigatus; Aspergillus fumigatus, 0.5 h, nongerminated, RPMI-1640, 3.0 μM)?
Answer: The activity at 3 µM was 103%.

Question: What about the LD95 (concentration killing 95% of conidia) (Aspergillus fumigatus; [1]) of the same molecule?
Answer: The LD95 (concentration killing 95% of conidia) was 4 µM.

Question: And the LD95 (concentration lethal to 95% of conidia) (Aspergillus fumigatus; [1])?
Answer: The LD95 (concentration lethal to 95% of conidia) was 5 µg/mL.

Question: What about the minimal effective concentration (Aspergillus fumigatus; Aspergillus fumigatus, 0.5 h, read-out: concentration achieving significant lethality) of the same molecule?
Answer: The minimal effective concentration was 3 µM and 3.7 µg/mL.

Question: What about the minimal effective concentration (Aspergillus fumigatus; Aspergillus fumigatus, 0.5 h, read-out: concentration required for statistically significant viability reduction) of the same molecule?
Answer: The minimal effective concentration was 12.4 µg/mL.

Question: What about the minimal effective concentration (Aspergillus fumigatus; Aspergillus fumigatus, 0.5 h, germinating conidia, RPMI-1640, p=0.0002, read-out: concentration required for statistically significant viability reduction) of the same molecule?
Answer: The minimal effective concentration was 10 µM.

Question: What about the “Mean No. of Colonies” value (Aspergillus fumigatus; germinating, 1% PDB, 2.0 μM) of the same molecule?
Answer: Its value is 44.1.

Question: What about the “Mean No. of Colonies” value (Aspergillus fumigatus; germinating, 1% PDB, 3.0 μM) of the same molecule?
Answer: Its value is 22.9.

Question: And the “Mean No. of Colonies” value (Aspergillus fumigatus; germinating, 1% PDB, 4.0 μM)?
Answer: The value was 6.6.

Question: What about the “Mean No. of Colonies” value (Aspergillus fumigatus; germinating, 1% PDB, 5.0 μM) of the same molecule?
Answer: The value was 2.8.

Question: What about the “Mean No. of Colonies” value (Aspergillus fumigatus; germinating, 1% PDB, 7.5 μM) of the same molecule?
Answer: The value was 1.3.

Question: What about the “Mean No. of Colonies” value (Aspergillus fumigatus; germinating, 1% PDB, 10.0 μM) of the same molecule?
Answer: The value was 0.1.

Question: And the “Mean No. of Colonies” value (Aspergillus fumigatus; germinating, RPMI-1640, 0.5 μM)?
Answer: Its value is 10.9.

Question: What about the “Mean No. of Colonies” value (Aspergillus fumigatus; germinating, RPMI-1640, 1.0 μM) of the same molecule?
Answer: The value was 12.4.

Question: What about the “Mean No. of Colonies” value (Aspergillus fumigatus; germinating, RPMI-1640, 1.5 μM) of the same molecule?
Answer: Its value is 13.8.

Question: What about the “Mean No. of Colonies” value (Aspergillus fumigatus; germinating, RPMI-1640, 2.0 μM) of the same molecule?
Answer: Its value is 13.9.

Question: And the “Mean No. of Colonies” value (Aspergillus fumigatus; germinating, RPMI-1640, 2.5 μM)?
Answer: Its value is 13.5.

Question: What about the “Mean No. of Colonies” value (Aspergillus fumigatus; germinating, RPMI-1640, 3.0 μM) of the same molecule?
Answer: The value was 4.8.

Question: And the “Mean No. of Colonies” value (Aspergillus fumigatus; germinating, RPMI-1640, 4.0 μM)?
Answer: The value was 0.6.

Question: What about the “viability of nongerminated conidia” value (Aspergillus fumigatus; nongerminated conidia, either test medium) of the same molecule?
Answer: Its value is “not affected”.

Question: What about the “Mean No. of Colonies” value (Aspergillus fumigatus; nongerminated, 1% PDB, 2.0 μM) of the same molecule?
Answer: The value was 57.4.

Question: And the “Mean No. of Colonies” value (Aspergillus fumigatus; nongerminated, 1% PDB, 3.0 μM)?
Answer: The value was 49.1.

Question: And the “Mean No. of Colonies” value (Aspergillus fumigatus; nongerminated, 1% PDB, 4.0 μM)?
Answer: The value was 54.1.

Question: And the “Mean No. of Colonies” value (Aspergillus fumigatus; nongerminated, 1% PDB, 5.0 μM)?
Answer: Its value is 53.0.

Question: What about the “Mean No. of Colonies” value (Aspergillus fumigatus; nongerminated, 1% PDB, 7.5 μM) of the same molecule?
Answer: Its value is 59.0.

Question: What about the “Mean No. of Colonies” value (Aspergillus fumigatus; nongerminated, 1% PDB, 10.0 μM) of the same molecule?
Answer: Its value is 61.8.

Question: What about the “Mean No. of Colonies” value (Aspergillus fumigatus; nongerminated, RPMI-1640, 0.5 μM) of the same molecule?
Answer: Its value is 27.0.

Question: What about the “Mean No. of Colonies” value (Aspergillus fumigatus; nongerminated, RPMI-1640, 1.0 μM) of the same molecule?
Answer: The value was 30.6.

Question: What about the “Mean No. of Colonies” value (Aspergillus fumigatus; nongerminated, RPMI-1640, 1.5 μM) of the same molecule?
Answer: Its value is 22.5.

Question: What about the “Mean No. of Colonies” value (Aspergillus fumigatus; nongerminated, RPMI-1640, 2.0 μM) of the same molecule?
Answer: Its value is 25.1.

Question: What about the “Mean No. of Colonies” value (Aspergillus fumigatus; nongerminated, RPMI-1640, 2.5 μM) of the same molecule?
Answer: Its value is 22.3.

Question: And the “Mean No. of Colonies” value (Aspergillus fumigatus; nongerminated, RPMI-1640, 3.0 μM)?
Answer: The value was 23.8.
